This note sets out measurements from PubChem BioAssay (NCI).

Among the test systems are HL-60(TB) leukemia; OVCAR-8 ovarian; M14 melanoma; UO-31 renal; NCI-H226 lung; OVCAR-5 ovarian; SN12C renal; SF-539 CNS; COLO 205 colon; T-47D breast.
What all share (experiment): NCI-60 cell line screen, 48 h

Where “and” joins values, the source holds several entries; their conditions need not be identical. Identical values can stand only once.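 1) Cells in 96-well plates. 2) Compound, 48 h, 5 concentrations. 3) Linear interpolation between surrounding doses. 4) Unreached endpoint = highest concentration. The concentration for 50% growth inhibition is given as GI50. Definition used: TGI = concentration required for complete inhibition of growth.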

For `CCO/C=C\C12CCCC1NC(c1ccccc1)(c1ccccc1)O2` (configuration not stated), the TGI in the experiment with HL-60(TB) leukemia is 45.2 µM; in the experiment on OVCAR-8 ovarian it was above 100 µM; with M14 melanoma it was 66 µM; in the experiment with UO-31 renal it was 73.6 µM; with NCI-H226 lung, above 100 µM; in the experiment with OVCAR-5 ovarian, 37 µM. For the same molecule, the TGI in the experiment on SN12C renal amounted to 78.3 µM; with SF-539 CNS, 66 µM.

With `NS(=O)(=O)c1ccc(-n2nc3c(c2-c2cccs2)Cc2ccccc2-3)cc1`, the GI50 is 20.5 µM in the experiment with OVCAR-8 ovarian; 17.3 µM in the experiment with M14 melanoma; 12.2 µM in the experiment on UO-31 renal; 25.3 µM in the experiment on COLO 205 colon; 4.9 µM in the experiment with NCI-H226 lung; 18.5 µM in the experiment on OVCAR-5 ovarian. For the same molecule, the results for the GI50 with T-47D breast, in the experiment on SN12C renal and in the experiment on SF-539 CNS were 12.8 µM, 12.2 µM and 12.1 µM, respectively. Also, the TGI in the experiment on OVCAR-8 ovarian stood at 41.6 µM; in the experiment on M14 melanoma it was 34.1 µM; in the experiment on UO-31 renal it was 24.6 µM; in the experiment with COLO 205 colon it was 69.3 µM; with NCI-H226 lung it was 26.2 µM; in the experiment on OVCAR-5 ovarian, 48 µM. For the same molecule, the TGI was determined as 41.1 µM in the experiment with T-47D breast, 25 µM with SN12C renal and 25.1 µM in the experiment with SF-539 CNS.

On to `O=C(Nc1ccc(Br)cc1)C(=O)C(C(=O)c1ccc(Cl)c(Cl)c1)C1OC(=O)c2ccccc21` (configuration not stated), for which the TGI in the experiment on HL-60(TB) leukemia is above 100 µM; with OVCAR-8 ovarian it was 32.3 µM; in the experiment on M14 melanoma it was 31.9 µM; with UO-31 renal it was 43.2 µM; in the experiment with COLO 205 colon it was 34.8 µM; in the experiment on NCI-H226 lung it was 20.6 µM. Further, the TGI came out at 52.3 µM in the experiment with OVCAR-5 ovarian and 68.3 µM in the experiment with SN12C renal.

Consider `C=CCC1(CN(C)C)CC/C(=C\c2ccc3c(c2)OCO3)C1=O` (configuration not stated), for which the TGI is 15.8 µM in the experiment on HL-60(TB) leukemia; above 100 µM in the experiment on OVCAR-8 ovarian; above 100 µM with M14 melanoma; above 100 µM in the experiment on UO-31 renal; 54.1 µM with COLO 205 colon; above 100 µM in the experiment with NCI-H226 lung. In addition, the TGI in the experiment with OVCAR-5 ovarian, in the experiment with SN12C renal and in the experiment on SF-539 CNS was above 100 µM throughout.

Regarding `CCCCCCCCCCCCCCNCC(OC)OC`, the TGI in the experiment with HL-60(TB) leukemia is 23 µM; in the experiment on OVCAR-8 ovarian, 44.3 µM; in the experiment on M14 melanoma, 27.4 µM; with UO-31 renal, 25.7 µM; in the experiment with COLO 205 colon it was 28.3 µM; in the experiment with NCI-H226 lung it was 34.4 µM. In addition, the TGI with OVCAR-5 ovarian is 27.8 µM; with SN12C renal, 30.9 µM; in the experiment on SF-539 CNS, 30.9 µM.

As for `C=CC1=C(C)C(/C=c2\[nH]/c(=C/c3[nH]c(CC4NC(=O)C(C)/C4=C\C)c(C)c3CCC(=O)O)c(CC(=O)O)c2C)=NC1=O` (configuration not stated), the TGI with HL-60(TB) leukemia, with OVCAR-8 ovarian, in the experiment on M14 melanoma, in the experiment with UO-31 renal, in the experiment on COLO 205 colon and in the experiment with NCI-H226 lung was above 100 µM throughout. The TGI with OVCAR-5 ovarian, with SN12C renal and in the experiment with SF-539 CNS was above 100 µM throughout.

For `CCC(O)CCCCCCCCCCCCCCC(=O)O` (configuration not stated), the TGI in the experiment with HL-60(TB) leukemia is 80 µM; with OVCAR-8 ovarian, above 100 µM; with M14 melanoma it was above 100 µM; in the experiment with UO-31 renal, above 100 µM; with COLO 205 colon it was above 100 µM; with NCI-H226 lung, above 100 µM. Besides, the TGI in the experiment with OVCAR-5 ovarian, with SN12C renal and in the experiment with SF-539 CNS was above 100 µM throughout.

Turning to `COc1cc(C2c3cc4c(cc3[C@@H](NC3CCN(Cc5ccccc5)CC3)C3COC(=O)[C@H]23)OCO4)cc(OC)c1O` (some centres not stated), the TGI was 0.2 µM and 0.0548 µM in the experiment on HL-60(TB) leukemia; 0.587 µM in the experiment with OVCAR-8 ovarian; 0.744 µM and 0.346 µM in the experiment with M14 melanoma; 1.11 µM and 0.275 µM with UO-31 renal; 0.101 µM and 0.0535 µM in the experiment with NCI-H226 lung; 1.51 µM in the experiment on OVCAR-5 ovarian. Besides, the TGI was 3.89 µM in the experiment on SN12C renal; 0.263 µM and 0.194 µM with SF-539 CNS. In addition, the GI50 in the experiment on M14 melanoma is 0.18 µM and 0.0484 µM; in the experiment on UO-31 renal it was 0.214 µM and 0.0879 µM; in the experiment with COLO 205 colon, 0.372 µM and 0.179 µM; in the experiment with SN12C renal, 1.85 µM.

`Cc1cc(OCc2ccc(C(F)(F)F)cc2)c2c(c1)C(=O)C=C(NCCN1CCCC1)C2=O`: the GI50 is 1.71 µM with HL-60(TB) leukemia; 3.25 µM in the experiment on OVCAR-8 ovarian; 1.88 µM in the experiment with M14 melanoma; 2.19 µM in the experiment with UO-31 renal; 1.9 µM in the experiment on COLO 205 colon; 14.6 µM with NCI-H226 lung. The figures for the GI50 in the experiment with OVCAR-5 ovarian, in the experiment with SN12C renal and with SF-539 CNS were 3.39 µM, 9.86 µM and 1.68 µM, respectively. Besides, the TGI was 4.08 µM with HL-60(TB) leukemia; 12.1 µM in the experiment on OVCAR-8 ovarian; 3.56 µM with M14 melanoma; 4.93 µM in the experiment with UO-31 renal; 3.72 µM in the experiment with COLO 205 colon; 35.2 µM in the experiment on NCI-H226 lung. The TGI in the experiment on OVCAR-5 ovarian is 12.3 µM; in the experiment on SN12C renal, 28.3 µM; with SF-539 CNS it was 3.24 µM.

With `[N-]=[N+]=C(C(=O)CN1CCCC1=O)S(=O)(=O)c1ccccc1`, the TGI in the experiment with HL-60(TB) leukemia, in the experiment on OVCAR-8 ovarian, in the experiment on M14 melanoma, with UO-31 renal, with COLO 205 colon and in the experiment with NCI-H226 lung was above 100 µM throughout. Further, the TGI in the experiment on OVCAR-5 ovarian, with SN12C renal and in the experiment with SF-539 CNS was above 100 µM throughout.

Consider `Cc1cc(-c2ccccc2)nc(Nc2cc3ccccc3[nH]2)n1`, for which the TGI in the experiment with HL-60(TB) leukemia, in the experiment with OVCAR-8 ovarian, in the experiment on M14 melanoma, in the experiment with UO-31 renal, in the experiment with COLO 205 colon and with NCI-H226 lung was above 100 µM throughout. Also, the TGI with OVCAR-5 ovarian, in the experiment with SN12C renal and in the experiment on SF-539 CNS was above 100 µM in each case.

`CCCCCCCCCC1CC(=O)OC2=C1C(=O)CCC2` (configuration not stated): the TGI in the experiment on HL-60(TB) leukemia, in the experiment with OVCAR-8 ovarian, in the experiment on M14 melanoma, with UO-31 renal, with COLO 205 colon and in the experiment with NCI-H226 lung was above 100 µM throughout. Also, the TGI in the experiment with OVCAR-5 ovarian, in the experiment on SN12C renal and in the experiment with SF-539 CNS was above 100 µM each time.
